Test results as given in patent publication US9610245B2, “Ophthalmic composition” (Drug Delivery Solutions Limited, priority 2011, dated 2017).

Assay: Ex vivo permeation of cyclosporine through cornea, Ussing diffusion cells
Format: in vitro ADME, rabbit
Conditions: excipient changed in or added to the Example 1 formulation
Method: In order to determine the permeation of cyclosporine (CsA) formulations into and through the cornea, ex vivo studies were conducted. In brief, the corneas from rabbits were taken and mounted onto Ussing diffusion cells incubated at 37° C. and perfused with carbogen (95/5 oxygen/[…]). Approximately 3 ml sample was placed in the donor side of the chamber, 3 ml Ringers solution (6.5 g NaCl, 0.42 g KCl, 0.25 g CaCl2 and […] of Sodium bicarbonate per litre; isotonic solution pH 7.2) was placed in the receptor side of the chamber.
Permeation across the cornea was determined by collecting 200 μl receptor phase at the appropriate time points. At time zero and at 8 hours (termination of the experiment) 100 μl of sample from the donor phase was taken for analysis. Corneas were collected and split into the stomal and epithelial parts. The cyclosporine in the cornea sections were analysed after extraction into 50/50 methanol/water. Levels of CsA in the receptor chamber, the cornea and in the donor chamber were determined by HPLC analysis. Formulations used were based on Example 1. The table below summarises the changes made to this formulation.

- effect of excipient on permeation of CsA into and through the cornea: no significant effect
Substance: benzalkonium chloride
